Measurements from patent US10196374B2 (AstraZeneca AB, priority 2014, dated 2019).

Legend:
[1] = target: T1, human glucocorticoid receptor (GR) (Homo sapiens (Human), UniProt P04150); test: GRE Agonist Assay (ChagoK1 18:7:2 s4/GRE MMTV-GRE-LacZ reporter cell line); type: cell-based; conditions: for Emax at 1 µM: ChaGo-K-1, relative to full agonist effect of dexamethasone, read-out: TA agonist Observed max Effect at 1 μM (%); for TA agonist pEC50: transactivation in agonist mode, ChagoK1 GRE-LacZ reporter cells, 24 hours
Source text: GRE Agonist Assay A reporter cell line (ChagoK1 18:7:2 s4/GRE) was established by stable transfection of the human bronchogenic carcinoma cell line, ChaGo K1 (ATCC: HTB 168) with a MMTV-GRE-LacZ reporter construct. The generated cell line allows for identification of compounds showing agonist activity at the human glucocorticoid receptor (GR) via induction of LacZ gene expression. Ligand-activated GR binds to the Glucocorticoid Response Element (GRE) in the promoter of the LacZ gene and transcription is initiated. The resulting beta-galactosidase activity is measured through a colour reaction (change in absorbance). Cryo-preserved ChagoK1 18:7:2 s4/GRE cells were suspended in RPMI medium with 10% FBS, 1% NEAA and 1% sodium pyruvate, and seeded as 50000 cells/200 ul/well in 96-well plates and cultured at 37° C. with 5% CO2 and 95% humidity for 24 hours. 1 μl compound was added at different concentrations to the cells and incubated for another 24 hours. […] The reaction was then terminated by addition of 100 μl stop solution (300 mM glycine, 15 mM EDTA, pH 11.3, adjusted with NaOH). […]) Where A=min Y, B=max Y, C=log EC50 and D=Slope factor

[2] = target: T1, human glucocorticoid receptor (GR); test: GRE Antagonist Assay (ChagoK1 18:7:2 s4/GRE reporter cells pre-stimulated with dexamethasone); type: cell-based; conditions: for Emax at 1 µM: ChaGo-K-1, relative to full antagonist effect of Mifepristone (RU486), read-out: TA antagonist Observed max Effect at 1 μM (%); for TA antagonist pIC50: transactivation in antagonist mode, pre-stimulated with dexamethasone 70 nM
Source text: GRE Antagonist Assay A reporter cell line (ChagoK1 18:7:2 s4/GRE) was established by stable transfection of the human bronchogenic carcinoma celline, ChaGo K1 (ATCC: HTB 168) with a MMTV-GRE-LacZ reporter construct. The generated cell line allows for identification of compounds showing antagonist activity at the human glucocorticoid receptor (GR) via reduction of LacZ gene expression. Dexamethasone-activated GR binds to the Glucocorticoid Response Element (GRE) in the promoter of the LacZ gene and transcription is initiated. Antagonistic properties of compounds are assessed as beta-galactosidase intensity reduction from pre-stimulation with dexamethasone through a colour reaction (change in absorbance). Cryo-preserved ChagoK1 18:7:2 s4/GRE cells were suspended in RPMI medium with 10% FBS, 1% NEAA and 1% sodium pyruvate, and seeded as 50000 cells/200 ul/well in 96-well plates and cultured at 37° C. with 5% CO2 and 95% humidity for 24 hr. […] The reaction was then terminated by addition of 100 μl stop solution (300 mM glycine, 15 mM EDTA, pH 11.3, adjusted with NaOH). The plates were measured at 420 nm for absorbance in a SpectraMax reader (Molecular Device). […]) Where A=min Y, B=max Y, C=log IC50 and D=Slope factor

T1 sequence (P04150 whole entry): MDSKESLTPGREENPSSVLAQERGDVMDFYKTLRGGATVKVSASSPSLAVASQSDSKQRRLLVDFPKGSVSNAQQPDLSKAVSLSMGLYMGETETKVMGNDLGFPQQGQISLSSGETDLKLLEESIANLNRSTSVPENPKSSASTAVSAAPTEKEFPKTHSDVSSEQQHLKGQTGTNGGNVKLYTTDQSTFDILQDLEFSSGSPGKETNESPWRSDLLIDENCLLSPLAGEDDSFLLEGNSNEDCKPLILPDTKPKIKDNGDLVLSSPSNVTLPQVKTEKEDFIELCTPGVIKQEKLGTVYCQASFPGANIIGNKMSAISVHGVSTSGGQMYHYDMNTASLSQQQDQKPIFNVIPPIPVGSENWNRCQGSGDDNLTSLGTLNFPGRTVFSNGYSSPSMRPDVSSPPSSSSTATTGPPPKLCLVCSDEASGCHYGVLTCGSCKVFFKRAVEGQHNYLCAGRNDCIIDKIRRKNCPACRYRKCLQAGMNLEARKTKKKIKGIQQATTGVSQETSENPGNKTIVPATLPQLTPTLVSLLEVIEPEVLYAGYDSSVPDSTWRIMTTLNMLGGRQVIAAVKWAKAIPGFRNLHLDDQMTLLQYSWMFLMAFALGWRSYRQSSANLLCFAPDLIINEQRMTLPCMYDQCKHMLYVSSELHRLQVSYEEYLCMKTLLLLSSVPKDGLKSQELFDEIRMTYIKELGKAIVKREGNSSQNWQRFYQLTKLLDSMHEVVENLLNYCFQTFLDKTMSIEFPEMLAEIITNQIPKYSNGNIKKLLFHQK

| Structure (SMILES) | Emax at 1 µM [1] | TA agonist pEC50 [1] | Emax at 1 µM [2] | TA antagonist pIC50 [2] |
| --- | --- | --- | --- | --- |
| CC(C)[C@H](NC(=O)C(C)(F)F)[C@H](Oc1ccc2c(cnn2-c2ccc(=O)n(C)c2)c1)c1ccc(Cl)c(F)c1 [Example 20, N-[(1R,2S)-1-(4-chloro-3-fluorophenyl)-3-methyl-1-{[1-(1-methyl-6-oxo-1,6-dihydropyridin-3-yl)-1H-indazol-5-yl]oxy}butan-2-yl]-2,2-difluoropropanamide] | 43% | 8.3 | 66% | 7.3 |
| CC(C)[C@H](NC(=O)C(F)(F)F)[C@H](Oc1ccc2c(cnn2-c2ccc(=O)n(C)c2)c1)c1cc(F)cc(Cl)c1 [Example 18, N-[(1R,2S)-1-[3-chloro-5-fluorophenyl]-3-methyl-1-{[1-(1-methyl-6-oxo-1,6-dihydropyridin-3-yl)-1H-indazol-5-yl]oxy}butan-2-yl]-2,2,2-trifluoroacetamide] | 32% | 8.8 | 61% | 7.6 |
| CC(C)[C@H](NC(=O)C(F)(F)F)[C@H](Oc1ccc2c(cnn2-c2ccc(=O)n(C)c2)c1)c1ccc(Cl)cc1 [Example 13, N-[(1R,2S)-1-(4-chlorophenyl)-3-methyl-1-{[1-(1-methyl-6-oxo-1,6-dihydropyridin-3-yl)-1H-indazol-5-yl]oxy}butan-2-yl]-2,2,2-trifluoroacetamide] | 28% | 8.3 | 72% | 6.9 |
| CC(C)[C@H](NC(=O)C(C)(F)F)[C@H](Oc1ccc2c(cnn2-c2ccc(=O)n(C)c2)c1)c1ccc(OC(F)(F)F)cc1 [Example 9, 2,2-difluoro-N-{(1R,2S)-3-methyl-1-{[1-(1-methyl-6-oxo-1,6-dihydropyridin-3-yl)-1H-indazol-5-yl]oxy}-1-[4-(trifluoromethoxy)phenyl]butan-2-yl}propanamide] | 22% | 7.7 | 63% | 6.9 |
| CC(C)[C@H](NC(=O)C(C)(F)F)[C@H](Oc1ccc2c(cnn2-c2ccc(=O)n(C)c2)c1)c1ccc(Cl)cc1 [Example 7, N-[(1R,2S)-1-(4-chlorophenyl)-3-methyl-1-{[1-(1-methyl-6-oxo-1,6-dihydropyridin-3-yl)-1H-indazol-5-yl]oxy}butan-2-yl]-2,2-difluoropropanamide] | 46% | 8.1 | 54% | 7.1 |
| CC(C)[C@H](NC(=O)C(C)(F)F)[C@H](Oc1ccc2c(cnn2-c2ccc(=O)n(C)c2)c1)c1ccc(C(F)(F)F)cc1 [Example 10, 2,2-difluoro-N-{(1R,2S)-3-methyl-1-{[1-(1-methyl-6-oxo-1,6-dihydropyridin-3-yl)-1H-indazol-5-yl]oxy}-1-[4-(trifluoromethyl)phenyl]butan-2-yl}propanamide] | 40% | 8.1 | 51% | 7.0 |
| CC(C)[C@H](NC(=O)C(C)(F)F)[C@H](Oc1ccc2c(cnn2-c2ccc(=O)n(C)c2)c1)c1ccc(OC(F)F)cc1 [Example 11, N-[(1R,2S)-1-[4-(difluoromethoxy)phenyl]-3-methyl-1-{[1-(1-methyl-6-oxo-1,6-dihydropyridin-3-yl)-1H-indazol-5-yl]oxy}butan-2-yl]-2,2-difluoropropanamide] | 28% | 8.1 | 62% | 6.7 |
| CC(C)[C@H](NC(=O)C(F)(F)F)[C@H](Oc1ccc2c(cnn2-c2ccc(=O)n(C)c2)c1)c1ccccc1 [Example 2, 2,2,2-trifluoro-N-[(1R,2S)-3-methyl-1-{[1-(1-methyl-6-oxo-1,6-dihydropyridin-3-yl)-1H-indazol-5-yl]oxy}-1-phenylbutan-2-yl]acetamide] | 25% |  | 67% |  |
| CC(C)[C@H](NC(=O)C(C)(F)F)[C@H](Oc1cc2cnn(-c3ccc(=O)n(C)c3)c2cc1Cl)c1ccccc1 [Example 21, N-[(1R,2S)-1-{[6-chloro-1-(1-methyl-6-oxo-1,6-dihydropyridin-3-yl)-1H-indazol-5-yl]oxy}-3-methyl-1-phenylbutan-2-yl]-2,2-difluoropropanamide] | 42% | 8.3 | 48% | 7.3 |
| Cc1cc2c(cnn2-c2ccc(=O)n(C)c2)cc1O[C@H](c1ccccc1)[C@@H](NC(=O)C(C)(F)F)C(C)C [Example 12, 2,2-difluoro-N-[(1R,2S)-3-methyl-1-{[6-methyl-1-(1-methyl-6-oxo-1,6-dihydropyridin-3-yl)-1H-indazol-5-yl]oxy}-1-phenylbutan-2-yl]propanamide] | 46% | 8.4 | 48% | 7.1 |
| CCn1cc(-n2ncc3cc(O[C@H](c4ccccc4)[C@@H](NC(=O)C(C)(F)F)C(C)C)ccc32)ccc1=O [Example 23, N-[(1R,2S)-1-{[1-(1-ethyl-6-oxo-1,6-dihydropyridin-3-yl)-1H-indazol-5-yl]oxy}-3-methyl-1-phenylbutan-2-yl]-2,2-difluoropropanamide] | 14% | 7.6 | 70% | 6.4 |
| CC(C)[C@H](NC(=O)C(C)(F)F)[C@H](Oc1ccc2c(cnn2-c2ccc(=O)n(C)c2)c1)c1cccc(Cl)c1 [Example 5, N-[(1R,2S)-1-(3-chlorophenyl)-3-methyl-1-{[1-(1-methyl-6-oxo-1,6-dihydropyridin-3-yl)-1H-indazol-5-yl]oxy}butan-2-yl]-2,2-difluoropropanamide] | 28% | 8.6 | 72% | 6.7 |
| CC(C)[C@H](NC(=O)C(F)(F)F)[C@H](Oc1ccc2c(cnn2-c2ccc(=O)n(C)c2)c1)c1cc(F)cc(F)c1 [Example 4] | 42% | 8.7 | 51% | 8.8 |
| CC(C)[C@H](NC(=O)C(F)(F)F)[C@H](Oc1ccc2c(cnn2-c2ccc(=O)n(C)c2)c1)c1ccc(OC(F)F)cc1 [Example 16, N-[(1R,2S)-1-[4-(difluoromethoxy)phenyl]-3-methyl-1-{[1-(1-methyl-6-oxo-1,6-dihydropyridin-3-yl)-1H-indazol-5-yl]oxy}butan-2-yl]-2,2,2-trifluoroacetamide] | 20% | 8.0 | 75% | 6.6 |
| CC(C)[C@H](NC(=O)C(F)(F)F)[C@H](Oc1ccc2c(cnn2-c2ccc(=O)n(C)c2)c1)c1ccc(C(F)(F)F)cc1 [Example 15, 2,2,2-trifluoro-N-{(1R,2S)-3-methyl-1-{[1-(1-methyl-6-oxo-1,6-dihydropyridin-3-yl)-1H-indazol-5-yl]oxy}-1-[4-(trifluoromethyl)phenyl]butan-2-yl}acetamide] | 27% | 8.2 | 64% | 7.3 |
| CC(C)[C@H](NC(=O)C(F)(F)F)[C@H](Oc1ccc2c(cnn2-c2ccc(=O)n(C)c2)c1)c1ccc(Cl)c(F)c1 [Example 17, N-[(1R,2S)-1-(4-chloro-3-fluorophenyl)-3-methyl-1-{[1-(1-methyl-6-oxo-1,6-dihydropyridin-3-yl)-1H-indazol-5-yl]oxy}butan-2-yl]-2,2,2-trifluoroacetamide] | 32% | 8.4 | 79% | 7.4 |
| CC(C)[C@H](NC(=O)C(F)(F)F)[C@H](Oc1cc2cnn(-c3ccc(=O)n(C)c3)c2cc1Cl)c1ccccc1 [Example 22, N-[(1R,2S)-1-{[6-chloro-1-(1-methyl-6-oxo-1,6-dihydropyridin-3-yl)-1H-indazol-5-yl]oxy}-3-methyl-1-phenylbutan-2-yl]-2,2,2-trifluoroacetamide] | 37% | 8.5 | 56% | 7.3 |
